According to patent US20250312462A1, “PAK1 DEGRADERS AND METHODS OF USE THEREOF” (INSTITUTE FOR CANCER RESEARCH D/B/A THE RESEARCH INSTITUTE …, priority 2022, published 2025):
Read-outs that look alike come from different tables or passages of the source.

What was measured:
[1] = target: EGFR(L861Q) (Homo sapiens, UniProt P00533, L861Q); test: KINOMEscan; conditions: read-out: Percent Control
Procedure: (§1) The kinase engagement assay (KINOMEscan®) was performed by DiscoverX assessing binding abilities toward a set of kinases.

[2] = target: TRKB (Homo sapiens, UniProt Q16620); test: KINOMEscan; conditions: read-out: Percent Control
Procedure: as §1

[3] = system: OVCAR3 cells; test: Cell proliferation, MTT assay; type: cell-based; conditions: Homo sapiens, OVCAR-3, OVCAR3 cells, read-out: EC50, anti-proliferative
Procedure: […]. Cell proliferation was assessed by MTT assay. […].
Cells were plated at 2×10^3 cells per well in 96-well plates overnight and treated with various concentrations of Pak degraders for 72 hours. Cell viability was measured by MTT assay and the half maximal inhibitory concentration (IC50) was calculated using GraphPad Prism. Triplicates were performed for each sample and medium alone was used as a blank.
The anti-proliferative effects of PAK1 degradation and inhibition were evaluated. […]. […] […]. […] […].

[4] = target: MET(Y1235D) (Homo sapiens, UniProt P08581, Y1235D); test: KINOMEscan; conditions: read-out: Percent Control
Procedure: as §1

[5] = target: PCTK2 (Homo sapiens, UniProt Q00537); test: KINOMEscan; conditions: read-out: Percent Control
Procedure: as §1

[6] = target: DYRK1A (Homo sapiens, UniProt Q13627); test: KINOMEscan; conditions: read-out: Percent Control
Procedure: as §1

[7] = target: PRKD2 (Homo sapiens, UniProt Q9BZL6); test: KINOMEscan; conditions: read-out: Percent Control
Procedure: as §1

[8] = target: RIPK1 (Homo sapiens, UniProt Q13546); test: KINOMEscan; conditions: read-out: Percent Control
Procedure: as §1

[9] = target: EPHA1 (Homo sapiens, UniProt P21709); test: KINOMEscan; conditions: read-out: Percent Control
Chain of EPHA1 (P21709 26-976): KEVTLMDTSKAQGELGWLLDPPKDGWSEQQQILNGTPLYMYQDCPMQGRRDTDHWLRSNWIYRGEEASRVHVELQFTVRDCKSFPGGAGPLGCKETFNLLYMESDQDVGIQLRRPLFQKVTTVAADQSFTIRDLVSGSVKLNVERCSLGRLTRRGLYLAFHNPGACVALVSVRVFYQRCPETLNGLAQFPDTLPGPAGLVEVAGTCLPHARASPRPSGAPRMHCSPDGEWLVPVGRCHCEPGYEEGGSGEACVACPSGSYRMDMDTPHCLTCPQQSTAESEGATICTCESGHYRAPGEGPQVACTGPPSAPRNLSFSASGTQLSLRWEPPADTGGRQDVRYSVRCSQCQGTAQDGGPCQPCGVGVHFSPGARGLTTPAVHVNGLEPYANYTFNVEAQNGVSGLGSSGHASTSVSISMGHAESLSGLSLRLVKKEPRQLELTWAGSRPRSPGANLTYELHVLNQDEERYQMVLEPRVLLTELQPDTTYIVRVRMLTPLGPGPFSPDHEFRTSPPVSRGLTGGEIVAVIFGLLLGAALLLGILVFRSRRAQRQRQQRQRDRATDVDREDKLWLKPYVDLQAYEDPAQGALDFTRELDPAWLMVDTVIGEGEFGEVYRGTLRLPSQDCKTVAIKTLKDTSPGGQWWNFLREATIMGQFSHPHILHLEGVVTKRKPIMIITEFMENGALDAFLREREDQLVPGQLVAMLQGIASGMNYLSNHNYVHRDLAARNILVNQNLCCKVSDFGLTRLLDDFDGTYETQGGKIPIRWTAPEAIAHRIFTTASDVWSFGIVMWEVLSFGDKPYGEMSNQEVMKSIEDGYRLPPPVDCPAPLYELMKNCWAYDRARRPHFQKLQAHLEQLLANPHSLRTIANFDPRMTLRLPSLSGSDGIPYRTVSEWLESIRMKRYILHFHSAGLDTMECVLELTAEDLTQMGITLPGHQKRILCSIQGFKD
Procedure: as §1

[10] = target: TNK1 (Homo sapiens, UniProt Q13470); test: KINOMEscan; conditions: read-out: Percent Control
Chain of TNK1 (Q13470 whole entry): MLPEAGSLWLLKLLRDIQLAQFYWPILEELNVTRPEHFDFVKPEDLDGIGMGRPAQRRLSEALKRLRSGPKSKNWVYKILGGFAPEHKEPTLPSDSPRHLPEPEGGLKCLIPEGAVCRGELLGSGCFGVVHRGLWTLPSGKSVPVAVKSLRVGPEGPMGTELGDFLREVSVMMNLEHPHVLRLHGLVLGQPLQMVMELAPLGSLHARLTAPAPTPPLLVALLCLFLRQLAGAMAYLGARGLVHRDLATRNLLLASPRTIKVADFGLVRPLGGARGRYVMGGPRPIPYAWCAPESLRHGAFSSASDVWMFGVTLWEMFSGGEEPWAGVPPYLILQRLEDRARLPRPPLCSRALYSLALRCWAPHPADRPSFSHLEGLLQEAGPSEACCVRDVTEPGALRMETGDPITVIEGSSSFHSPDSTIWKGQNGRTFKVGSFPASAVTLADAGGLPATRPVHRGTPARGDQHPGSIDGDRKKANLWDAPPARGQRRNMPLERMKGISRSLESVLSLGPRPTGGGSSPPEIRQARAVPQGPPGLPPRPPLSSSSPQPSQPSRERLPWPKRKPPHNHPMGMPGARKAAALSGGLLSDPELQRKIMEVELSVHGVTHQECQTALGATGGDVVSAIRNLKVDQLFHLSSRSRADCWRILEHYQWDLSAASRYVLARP
Procedure: as §1

[11] = target: TXK (Homo sapiens, UniProt P42681); test: KINOMEscan; conditions: read-out: Percent Control
Procedure: as §1

[12] = target: ACVRL1 (Homo sapiens, UniProt P37023); test: KINOMEscan; conditions: read-out: Percent Control
Procedure: as §1

[13] = target: GRK7 (Homo sapiens, UniProt Q8WTQ7); test: KINOMEscan; conditions: read-out: Percent Control
Procedure: as §1

[14] = target: BTK (Homo sapiens, UniProt Q06187); test: KINOMEscan; conditions: read-out: Percent Control
Procedure: as §1

[15] = target: S6K1 (Homo sapiens, UniProt P23443); test: KINOMEscan; conditions: read-out: Percent Control
Chain of S6K1 (P23443 whole entry): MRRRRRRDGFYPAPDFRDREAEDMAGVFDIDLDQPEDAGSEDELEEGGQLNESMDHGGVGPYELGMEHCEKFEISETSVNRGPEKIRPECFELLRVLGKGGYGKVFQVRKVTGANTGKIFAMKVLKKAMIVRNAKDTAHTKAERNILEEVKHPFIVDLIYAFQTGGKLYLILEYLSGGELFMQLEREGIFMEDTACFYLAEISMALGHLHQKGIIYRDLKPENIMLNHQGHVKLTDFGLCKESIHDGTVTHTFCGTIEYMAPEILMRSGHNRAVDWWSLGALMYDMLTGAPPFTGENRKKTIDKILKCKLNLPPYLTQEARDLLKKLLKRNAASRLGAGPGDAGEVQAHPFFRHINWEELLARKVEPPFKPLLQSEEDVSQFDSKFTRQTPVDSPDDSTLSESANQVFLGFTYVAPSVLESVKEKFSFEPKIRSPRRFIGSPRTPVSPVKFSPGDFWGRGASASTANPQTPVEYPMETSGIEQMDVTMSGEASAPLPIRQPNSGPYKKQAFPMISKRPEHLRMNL
Procedure: as §1

[16] = target: TESK1 (Homo sapiens, UniProt Q15569); test: KINOMEscan; conditions: read-out: Percent Control
Procedure: as §1

[17] = target: ULK2 (Homo sapiens, UniProt Q8IYT8); test: KINOMEscan; conditions: read-out: Percent Control
Procedure: as §1

[18] = target: WEE2 (Homo sapiens, UniProt P0C1S8); test: KINOMEscan; conditions: read-out: Percent Control
Chain of WEE2 (P0C1S8 whole entry): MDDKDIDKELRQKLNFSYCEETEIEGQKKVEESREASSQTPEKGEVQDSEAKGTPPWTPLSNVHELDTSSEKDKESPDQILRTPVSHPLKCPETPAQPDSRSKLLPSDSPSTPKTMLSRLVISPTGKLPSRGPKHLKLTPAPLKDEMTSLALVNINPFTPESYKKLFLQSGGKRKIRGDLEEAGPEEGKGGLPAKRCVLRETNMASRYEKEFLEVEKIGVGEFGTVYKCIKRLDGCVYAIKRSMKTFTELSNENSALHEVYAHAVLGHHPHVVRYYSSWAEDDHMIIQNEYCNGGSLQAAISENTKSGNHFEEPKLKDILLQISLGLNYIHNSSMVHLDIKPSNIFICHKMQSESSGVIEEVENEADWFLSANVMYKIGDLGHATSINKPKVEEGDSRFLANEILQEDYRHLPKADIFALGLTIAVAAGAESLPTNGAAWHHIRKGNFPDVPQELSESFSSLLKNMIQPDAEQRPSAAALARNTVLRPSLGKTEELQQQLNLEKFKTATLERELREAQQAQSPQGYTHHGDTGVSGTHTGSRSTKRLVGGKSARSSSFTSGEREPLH
Procedure: as §1

[19] = target: ZAK (Homo sapiens, UniProt Q9NYL2); test: KINOMEscan; conditions: read-out: Percent Control
Procedure: as §1

[20] = target: YES (Homo sapiens, UniProt P07947); test: KINOMEscan; conditions: read-out: Percent Control
Procedure: as §1

[21] = target: STK39 (Homo sapiens, UniProt Q9UEW8); test: KINOMEscan; conditions: read-out: Percent Control
Procedure: as §1

[22] = target: FGR (Homo sapiens, UniProt P09769); test: KINOMEscan; conditions: read-out: Percent Control
Procedure: as §1

[23] = target: EGFR(G719S) (Homo sapiens, UniProt P00533, G719S); test: KINOMEscan; conditions: read-out: Percent Control
Chain of EGFR(G719S) (P00533 25-1210 G719S): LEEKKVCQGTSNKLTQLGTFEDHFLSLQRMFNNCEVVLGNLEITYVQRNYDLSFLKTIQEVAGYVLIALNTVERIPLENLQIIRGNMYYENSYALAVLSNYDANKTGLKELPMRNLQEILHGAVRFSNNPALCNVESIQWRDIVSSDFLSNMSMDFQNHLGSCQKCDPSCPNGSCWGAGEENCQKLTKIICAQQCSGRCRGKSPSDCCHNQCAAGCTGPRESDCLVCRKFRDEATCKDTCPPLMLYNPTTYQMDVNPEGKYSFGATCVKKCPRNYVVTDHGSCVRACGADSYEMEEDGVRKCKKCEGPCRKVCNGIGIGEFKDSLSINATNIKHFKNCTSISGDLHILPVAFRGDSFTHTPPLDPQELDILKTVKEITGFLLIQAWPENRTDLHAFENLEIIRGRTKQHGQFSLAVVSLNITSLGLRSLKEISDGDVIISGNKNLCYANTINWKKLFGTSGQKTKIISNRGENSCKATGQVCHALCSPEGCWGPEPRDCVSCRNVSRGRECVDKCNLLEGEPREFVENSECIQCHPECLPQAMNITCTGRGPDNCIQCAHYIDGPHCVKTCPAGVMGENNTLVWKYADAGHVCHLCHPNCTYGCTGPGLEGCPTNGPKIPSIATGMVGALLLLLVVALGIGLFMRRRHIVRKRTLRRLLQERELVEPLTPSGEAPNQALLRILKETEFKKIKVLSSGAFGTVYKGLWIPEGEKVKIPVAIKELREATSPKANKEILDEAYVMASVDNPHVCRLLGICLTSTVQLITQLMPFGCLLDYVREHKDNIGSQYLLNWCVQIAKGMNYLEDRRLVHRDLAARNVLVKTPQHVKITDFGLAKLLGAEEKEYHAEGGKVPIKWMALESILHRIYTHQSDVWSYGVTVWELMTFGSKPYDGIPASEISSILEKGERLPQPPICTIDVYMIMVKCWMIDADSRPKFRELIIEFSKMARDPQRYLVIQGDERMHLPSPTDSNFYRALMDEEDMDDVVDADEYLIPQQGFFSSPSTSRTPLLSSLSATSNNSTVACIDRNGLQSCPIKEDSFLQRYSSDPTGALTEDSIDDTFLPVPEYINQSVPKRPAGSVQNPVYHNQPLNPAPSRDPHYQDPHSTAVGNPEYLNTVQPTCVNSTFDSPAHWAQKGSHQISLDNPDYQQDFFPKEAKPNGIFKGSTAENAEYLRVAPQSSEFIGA
Procedure: as §1

[24] = target: EGFR(E746-A750del) (Homo sapiens, UniProt P00533, DEL746-750); test: KINOMEscan; conditions: read-out: Percent Control
Procedure: as §1

[25] = target: MEK1 (Homo sapiens, UniProt Q02750); test: KINOMEscan; conditions: read-out: Percent Control
Chain of MEK1 (Q02750 whole entry): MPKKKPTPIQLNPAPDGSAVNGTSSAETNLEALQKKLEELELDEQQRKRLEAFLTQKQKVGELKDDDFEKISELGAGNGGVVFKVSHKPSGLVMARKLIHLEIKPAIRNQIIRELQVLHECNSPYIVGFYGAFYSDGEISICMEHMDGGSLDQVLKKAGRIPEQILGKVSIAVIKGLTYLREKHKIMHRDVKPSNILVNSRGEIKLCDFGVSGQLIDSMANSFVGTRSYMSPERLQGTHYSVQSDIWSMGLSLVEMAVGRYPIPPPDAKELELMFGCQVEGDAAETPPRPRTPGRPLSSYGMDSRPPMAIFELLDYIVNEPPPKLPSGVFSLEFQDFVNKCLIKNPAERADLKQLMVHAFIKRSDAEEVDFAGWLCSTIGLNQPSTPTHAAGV
Procedure: as §1

[26] = target: ULK3 (Homo sapiens, UniProt Q6PHR2); test: KINOMEscan; conditions: read-out: Percent Control
Procedure: as §1

[27] = target: MERTK (Homo sapiens, UniProt Q12866); test: KINOMEscan; conditions: read-out: Percent Control
Procedure: as §1

[28] = target: ABL1(T315I)-nonphosphorylated (Homo sapiens, UniProt P00519, T315I); test: KINOMEscan; conditions: read-out: Percent Control
Procedure: as §1

[29] = target: DYRK1B (Homo sapiens, UniProt Q9Y463); test: KINOMEscan; conditions: read-out: Percent Control
Chain of DYRK1B (Q9Y463 whole entry): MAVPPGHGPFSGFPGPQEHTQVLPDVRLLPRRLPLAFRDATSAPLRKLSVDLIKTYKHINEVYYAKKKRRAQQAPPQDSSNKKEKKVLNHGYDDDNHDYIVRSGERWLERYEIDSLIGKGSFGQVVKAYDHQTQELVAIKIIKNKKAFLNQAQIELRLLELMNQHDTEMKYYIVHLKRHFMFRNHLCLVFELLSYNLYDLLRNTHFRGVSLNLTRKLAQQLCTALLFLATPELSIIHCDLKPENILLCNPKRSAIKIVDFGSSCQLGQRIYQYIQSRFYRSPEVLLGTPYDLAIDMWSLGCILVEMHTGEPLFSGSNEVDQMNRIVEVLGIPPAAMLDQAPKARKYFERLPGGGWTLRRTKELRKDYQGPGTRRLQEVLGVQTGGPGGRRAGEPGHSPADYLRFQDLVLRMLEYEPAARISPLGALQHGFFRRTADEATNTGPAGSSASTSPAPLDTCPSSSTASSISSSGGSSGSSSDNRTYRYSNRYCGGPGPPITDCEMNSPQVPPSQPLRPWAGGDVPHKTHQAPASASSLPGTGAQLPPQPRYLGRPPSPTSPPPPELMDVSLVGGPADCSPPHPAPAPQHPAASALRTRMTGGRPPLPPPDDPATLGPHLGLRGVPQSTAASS
Procedure: as §1

[30] = target: FES (Homo sapiens, UniProt P07332); test: KINOMEscan; conditions: read-out: Percent Control
Procedure: as §1

[31] = target: TYK2(JH2domain-pseudokinase) (Homo sapiens, UniProt P29597); test: KINOMEscan; conditions: read-out: Percent Control
Procedure: as §1

[32] = target: BMPR1A (Homo sapiens, UniProt P36894); test: KINOMEscan; conditions: read-out: Percent Control
Procedure: as §1

[33] = target: SBK1 (Homo sapiens, UniProt Q52WX2); test: KINOMEscan; conditions: read-out: Percent Control
Procedure: as §1

[34] = target: SgK110 (Homo sapiens, UniProt P0C264); test: KINOMEscan; conditions: read-out: Percent Control
Procedure: as §1

[35] = target: IKK-beta (Homo sapiens, UniProt O14920); test: KINOMEscan; conditions: read-out: Percent Control
Procedure: as §1

O=C1CCC(N2C(=O)c3cccc(NCCCCCCCCNC(=O)N4CC[C@H](NC5=Nc6cc(F)ccc6N(CC(F)F)c6ccc(Cl)cc65)C4)c3C2=O)C(=O)N1 (stereo partly drawn) [BJG-05-039, (3S)-3-((2-Chloro-5-(2,2-difluoroethyl)-8-fluoro-5H-dibenzo[b,e][1,4]diazepin-11-yl)amino)-N-(8-((2-(2,6-dioxopiperidin-3-yl)-1,3-dioxoisoindolin-4-yl)amino)octyl)pyrrolidine-1-carboxamide]
remaining binding at 10 µM [1]: 88% | remaining binding at 10 µM [2]: 67% | EC50 ([3]; first statement of b311): 8.4 nM | EC50 ([3]; second listing of b311): 102 nM | remaining binding at 10 µM [4]: 63% | remaining binding at 10 µM [5]: 58% | remaining binding at 10 µM [6]: 100% | remaining binding at 10 µM [7]: 53% | remaining binding at 10 µM [8]: 65% | remaining binding at 10 µM [9]: 98% | remaining binding at 10 µM [10]: 83% | remaining binding at 10 µM [11]: 90% | remaining binding at 10 µM [12]: 71% | remaining binding at 10 µM [13]: 100% | remaining binding at 10 µM [14]: 100% | remaining binding at 10 µM [15]: 89% | remaining binding at 10 µM [16]: 92% | remaining binding at 10 µM [17]: 82% | remaining binding at 10 µM [18]: 78% | remaining binding at 10 µM [19]: 97% | remaining binding at 10 µM [20]: 79% | remaining binding at 10 µM [21]: 70% | remaining binding at 10 µM [22]: 82% | remaining binding at 10 µM [23]: 84% | remaining binding at 10 µM [24]: 100% | remaining binding at 10 µM [25]: 100% | remaining binding at 10 µM [26]: 92% | remaining binding at 10 µM [27]: 90% | remaining binding at 10 µM [28]: 86% | remaining binding at 10 µM [29]: 100% | remaining binding at 10 µM [30]: 86% | remaining binding at 10 µM [31]: 97% | remaining binding at 10 µM [32]: 98% | remaining binding at 10 µM [33]: 82% | remaining binding at 10 µM [34]: 83% | remaining binding at 10 µM [35]: 94%
